Like-named read-outs stand apart in the source and are kept apart here.
System: MCH receptors
Assay: MCH receptor activity class (method not given)
[1] = MCH receptor, class by percent of control at 10^-7 M or IC50
[2] = activity class per percent of control at 10^-7 M or IC50
[3] = class by percent of control at 10^-7 M or IC50
[4] = class 1-3 by percent of control at 10^-7 M or IC50
[5] = class by percent of control at 10^−7 M or IC50
[6] = MCH receptor activity class 1-3 (percent of control at 10^-7 M or IC50)
[7] = activity class 1-3: percent of control at 10^-7 M or IC50

In the case of `CN(C)c1nc(N[C@H]2CC[C@@H](NC(=S)Nc3ccc(Br)c(Cl)c3)CC2)nc2c1CCCC2` [compound 2046], the class [1] is reported as 3 (Class 3 The value of percent of control at 10^−7 M was more than 60% or the value of IC50 was more than 200 nM.).
With `CN(C)c1ccc(CNC[C@H]2CC[C@@H](Nc3cc(N(C)C)c4ccccc4n3)CC2)cc1` [compound 1151] the class [2] was 3 (Class 3 The value of percent of control at 10^−7 M was more than 60% or the value of IC50 was more than 200 nM.).
For `Cc1c(C(=O)N[C@H]2CC[C@@H](Nc3nccc(N(C)C)n3)CC2)cc(-c2ccccc2)n1-c1ccccc1` [compound 890, N-(cis-4-{[4-(dimethylamino)pyrimidin-2-yl]amino}cyclohexyl)-2-methyl-1,5-diphenyl-1H-pyrrole-3-carboxamide], the class [3] was 1 (Class 1: The value of percent of control at 10^−7 M was less than 40% or the value of IC50 was less than 50 nM.).
`CN(C)c1nc(N[C@H]2CC[C@@H](NC(=O)c3cccs3)CC2)nc2c1CCCC2` [compound 488, N-(cis-4-{[4-(dimethylamino)-5,6,7,8-tetrahydroquinazolin-2-yl]amino}cyclohexyl)thiophene-2-carboxamide] was tested, and the class [4] was 3 (Class 3 The value of percent of control at 10^−7 M was more than 60% or the value of IC50 was more than 200 nM.).
For `Cc1cnc(N[C@H]2CC[C@@H](NC(=O)c3cccc(C(F)(F)F)c3)CC2)nc1N(C)C` [compound 2896, N-(cis-4-{[4-(dimethylamino)-5-methylpyrimidin-2-yl]amino}cyclohexyl)-3-(trifluoromethyl)benzamide], the class [5] was 1 (Class 1: The value of percent of control at 10^−7 M was less than 40% or the value of IC50 was less than 50 nM.).
`COc1ccc(NC(=O)N[C@H]2CC[C@@H](Nc3cc(N(C)C)c4ccccc4n3)CC2)cc1OC1CCCC1` [compound 2163] was tested, and the class [3] was 3 (Class 3 The value of percent of control at 10^−7 M was more than 60% or the value of IC50 was more than 200 nM.).
In the case of `CSc1ccc(NC(=O)NC[C@H]2CC[C@@H](Nc3nc4c(c(N(C)C)n3)CCCC4)CC2)cc1` [compound 2457], the class [6] is reported as 3 (Class 3 The value of percent of control at 10^−7 M was more than 60% or the value of IC50 was more than 200 nM.).
For `CN(C)c1nc(N[C@H]2CC[C@@H](CNC(=O)Nc3ccc(F)cc3)CC2)nc2c1CCCC2` [compound 2456], the class [6] was 2 (Class 2: The value of percent of control at 10^−7 M was from 40% to 60% or the value of IC′50 was from 50 nM to 200 nM.).
In the case of `CN(C)c1ccnc(N[C@H]2CC[C@@H](NC(=O)Nc3c(F)cc(Br)cc3F)CC2)n1` [compound 2206], the class [3] is reported as 3 (Class 3 The value of percent of control at 10^−7 M was more than 60% or the value of IC50 was more than 200 nM.).
`CN(C)c1ccnc(N[C@H]2CC[C@@H](NC(=O)COCc3ccccc3)CC2)n1` [compound 313] was tested, and the class [3] was 3 (Class 3 The value of percent of control at 10^−7 M was more than 60% or the value of IC50 was more than 200 nM.).
For `CN(C)c1ccnc(N[C@H]2CC[C@@H](CNC(=O)CC3CCCC3)CC2)n1` [compound 420], the class [4] was 3 (Class 3 The value of percent of control at 10^−7 M was more than 60% or the value of IC50 was more than 200 nM.).
For `CN(C)c1ccnc(N[C@H]2CC[C@@H](NC(=O)Nc3ccc4c(c3)OCCO4)CC2)n1` [compound 2251], the class [3] was 3 (Class 3 The value of percent of control at 10^−7 M was more than 60% or the value of IC50 was more than 200 nM.).
`Cc1cnc(N[C@H]2CC[C@@H](CNC(=O)c3cccnc3Oc3cccc(Cl)c3)C2)nc1N(C)C` [compound 3018] was tested, and the class [5] was 3 (Class 3 The value of percent of control at 10^−7 M was more than 60% or the value of IC50 was more than 200 nM.).
With `CN(C)c1ccnc(N[C@H]2CC[C@@H](CNC(=O)OCC3c4ccccc4-c4ccccc43)CC2)n1` [compound 1657] the class [7] was 3 (Class 3 The value of percent of control at 10^−7 M was more than 60% or the value of IC50 was more than 200 nM.).
With `CN(C)c1cc(N[C@H]2CC[C@@H](NC(=O)OCC(C)(C)C)CC2)nc2ccccc12` [compound 1540] the class [7] was 3 (Class 3 The value of percent of control at 10^−7 M was more than 60% or the value of IC50 was more than 200 nM.).
In the case of `CN(C)c1cc(N[C@H]2CC[C@@H](CNC(=O)c3cc(C(F)(F)F)ccc3F)CC2)nc2ccccc12` [compound 192], the class [1] is reported as 3 (Class 3 The value of percent of control at 10^−7 M was more than 60% or the value of IC50 was more than 200 nM.).
`CN(C)c1nc(N[C@H]2CC[C@@H](CNC(=O)c3cccc(OC(F)(F)F)c3)CC2)nc2c1CCCC2` [compound 616] was tested, and the class [3] was 3 (Class 3 The value of percent of control at 10^−7 M was more than 60% or the value of IC50 was more than 200 nM.).
With `CN(C)c1nc(N[C@H]2CC[C@@H](CNC(=O)c3ccc(Br)s3)CC2)nc2c1CCCC2` [compound 1061] the class [2] was 3 (Class 3 The value of percent of control at 10^−7 M was more than 60% or the value of IC50 was more than 200 nM.).
In the case of `Cc1cc(N(C)C)nc(N[C@H]2CC[C@@H](NC(=O)c3cc(F)cc(F)c3)CC2)n1` [compound 2968, N-(cis-4-{[4-(dimethylamino)-6-methylpyrimidin-2-yl]amino}cyclohexyl)-3,5-difluorobenzamide], the class [5] is reported as 1 (Class 1: The value of percent of control at 10^−7 M was less than 40% or the value of IC50 was less than 50 nM.).
`COc1cc([N+](=O)[O-])ccc1NC(=S)N[C@H]1CC[C@@H](Nc2cc(N(C)C)c3ccccc3n2)CC1` [compound 2269] was tested, and the class [3] was 3 (Class 3 The value of percent of control at 10^−7 M was more than 60% or the value of IC50 was more than 200 nM.).
`CN(C)c1ccnc(N[C@H]2CC[C@@H](NC(=O)c3cccs3)CC2)n1` [compound 270] was tested, and the class [3] was 3 (Class 3 The value of percent of control at 10^−7 M was more than 60% or the value of IC50 was more than 200 nM.).
For `CN(C)c1nc(N[C@H]2CC[C@@H](NC(=S)Nc3cccnc3)CC2)nc2c1CCCC2` [compound 2076], the class [1] was 3 (Class 3 The value of percent of control at 10^−7 M was more than 60% or the value of IC50 was more than 200 nM.).
`CN(C)c1ccnc(N[C@H]2CC[C@@H](NC(=O)c3cncc(Br)c3)CC2)n1` [compound 306] was tested, and the class [3] was 3 (Class 3 The value of percent of control at 10^−7 M was more than 60% or the value of IC50 was more than 200 nM.).
`CN(C)c1cc(N[C@H]2CC[C@@H](NC(=O)/C=C/c3ccccc3[N+](=O)[O-])CC2)nc2ccccc12` [compound 726] was tested, and the class [3] was 3 (Class 3 The value of percent of control at 10^−7 M was more than 60% or the value of IC50 was more than 200 nM.).
In the case of `CN(C)c1nc(N[C@H]2CC[C@@H](NC(=O)COc3ccccc3[N+](=O)[O-])CC2)nc2c1CCCC2` [compound 549], the class [4] is reported as 3 (Class 3 The value of percent of control at 10^−7 M was more than 60% or the value of IC50 was more than 200 nM.).
In the case of `Cc1cc(C(=O)N[C@H]2CC[C@@H](Nc3cc(N(C)C)c4ccccc4n3)CC2)ccc1F` [compound 81, N-(cis-4-{[4-(dimethylamino)quinolin-2-yl]amino}cyclohexyl)-4-fluoro-3-methylbenzamide], the class [1] is reported as 1 (Class 1: The value of percent of control at 10^−7 M was less than 40% or the value of IC50 was less than 50 nM.).
With `COc1cccc(C(=O)N[C@H]2CC[C@@H](Nc3cc(N(C)C)c4ccccc4n3)CC2)c1` [compound 20, N-(cis-4-{[4-(dimethylamino)quinolin-2-yl]amino}cyclohexyl)-3-methoxybenzamide] the class [1] was 2 (Class 2: The value of percent of control at 10^−7 M was from 40% to 60% or the value of IC′50 was from 50 nM to 200 nM.).
For `Cc1cccc(C(=O)N[C@H]2CC[C@@H](Nc3ncc(C)c(N(C)C)n3)CC2)c1` [Example 2562, N-(cis-4-{[4-(dimethylamino)-5-methylpyrimidin-2-yl]amino}cyclohexyl)-3-methylbenzamide], the class was 1.
With `Cc1nc(N[C@H]2CC[C@@H](NC(=O)c3cncc(Br)c3)CC2)nc(N(C)C)c1C` [compound 2857, 5-bromo-N-(cis-4-{[4-(dimethylamino)-5,6-dimethylpyrimidin-2-yl]amino}cyclohexyl)nicotinamide] the class [5] was 1 (Class 1: The value of percent of control at 10^−7 M was less than 40% or the value of IC50 was less than 50 nM.).
In the case of `CN(C)c1ccnc(N[C@H]2CC[C@@H](CNC(=O)c3cccc(C(F)(F)F)c3F)CC2)n1` [compound 409], the class [3] is reported as 3 (Class 3 The value of percent of control at 10^−7 M was more than 60% or the value of IC50 was more than 200 nM.).
`COc1cc(CC(=O)N[C@H]2CC[C@@H](Nc3nc4c(c(N(C)C)n3)CCCC4)CC2)cc(OC)c1` [compound 978] was tested, and the class [2] was 3 (Class 3 The value of percent of control at 10^−7 M was more than 60% or the value of IC50 was more than 200 nM.).
In the case of `COc1ccc(CC(=O)NC[C@H]2CC[C@@H](Nc3cc(N(C)C)c4ccccc4n3)CC2)cc1` [compound 196], the class [1] is reported as 3 (Class 3 The value of percent of control at 10^−7 M was more than 60% or the value of IC50 was more than 200 nM.).
`Cc1cc(C(=O)N[C@H]2CC[C@@H](Nc3nc(C)c(C)c(N(C)C)n3)CC2)ccc1F` [compound 2854, N-(cis-4-{[4-(dimethylamino)-5,6-dimethylpyrimidin-2-yl]amino}cyclohexyl)-4-fluoro-3-methylbenzamide] was tested, and the class [5] was 1 (Class 1: The value of percent of control at 10^−7 M was less than 40% or the value of IC50 was less than 50 nM.).
For `Cc1ccc(NC(=S)N[C@H]2CC[C@@H](Nc3cc(N(C)C)c4ccccc4n3)CC2)c(C)c1` [compound 2276], the class [3] was 3 (Class 3 The value of percent of control at 10^−7 M was more than 60% or the value of IC50 was more than 200 nM.).
`CN(C)c1cc(N[C@H]2CC[C@@H](NC(=O)c3cccc(Oc4ccccc4)c3)CC2)nc2ccccc12` [compound 731] was tested, and the class [3] was 3 (Class 3 The value of percent of control at 10^−7 M was more than 60% or the value of IC50 was more than 200 nM.).
`CC(C(=O)N[C@H]1CC[C@@H](Nc2nccc(N(C)C)n2)CC1)c1ccc(C(=O)c2cccs2)cc1` (relative stereo) [compound 884, N-(cis-4-{[4-(dimethylamino)pyrimidin-2-yl]amino}cyclohexyl)-2-[4-(2-thienylcarbonyl)phenyl]propanamide] was tested, and the class [3] was 2 (Class 2: The value of percent of control at 10^−7 M was from 40% to 60% or the value of IC′50 was from 50 nM to 200 nM.).
